Laboratory results taken from ChEMBL document CHEMBL3832035, “DailyMed|setid=5c133dfe-3cb5-426b-ac30-daf814e12c47 | FAMCICLOVIR - famciclovir tablet, film coated|Golden State Medical Supply, Inc”.
“And” between values parts separate entries of the source, which are not always exact repeats. Identical values can stand only once.

Tested on: Homo sapiens
Assay: Mean pharmacokinetic parameters for Penciclovir following single dose oral or IV administration of […] to healthy adult subjects and patients with different degrees of renal impairment.
Assay type: ADME, organism-based
Design: dose 1000 mg, dose 250 mg, dose 125 mg, dose 500 mg, route oral
Details: in vivo, regimen Single dose; for Excretion: tissue Urine
[1] = iv, dosed compound id 4, dosed compound name PENCICLOVIR, gender male, tissue Plasma
[2] = po, dose 500 mg, dosed compound id 40, dosed compound name FAMCICLOVIR, gender male, tissue Plasma

In the case of Nc1nc2c(ncn2CCC(CO)CO)c(=O)[nH]1 [PENCICLOVIR], the Excretion (iv, 5 mg/kg, dosed compound id 4, dosed compound name PENCICLOVIR, gender male, study dosing duration 24 hours) is reported as 91%, the F (iv, at 400 mg, dosed compound id 4, dosed compound name PENCICLOVIR, gender male, route oral, tissue Plasma) is reported as 77% and the Vd_beta (iv, dose 400 mg, dosed compound id 4, dosed compound name PENCICLOVIR, gender male, tissue Plasma) is reported as 1.08 L/kg. It also gave a CL [1] of 36.6 L/h, a t1/2 [1] of 2 h and an Excretion (po, at 500 mg, dosed compound id 40, dosed compound name FAMCICLOVIR, gender male, study dosing duration 72 hours) of 82%. For the same molecule, the CL_renal (po, dose 500 mg, dosed compound id 40, dosed compound name FAMCICLOVIR, gender female, tissue Plasma) was 21.8 L/h, the CL_renal [2] was 28.5 L/h and 27.7 L/h and the Tmax [2] was 0.9 h. It also gave a t1/2 [2] of 2.3 h, an AUC (po, dosed compound id 40, dosed compound name FAMCICLOVIR, gender female, tissue Plasma) of 11100 ng·h/mL and an AUC (po, dosed compound id 40, dosed compound name FAMCICLOVIR, gender male, tissue Plasma) of 9300 ng·h/mL.
